Assay [1] concerns A2780 cells. In words: In-vitro cell proliferation assay (SRB), A2780 cells. The assay is classed as cell-based. The following applies: A2780 cells, 72 hours, read-out: A2780 IC50. The essentials:
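SRB read-out: 6% TCA fix 1 h at 4° C., stain, Tris solubilize, A570. Media-only background subtracted; % inhibition from two compound concentrations.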

Assay [2] addresses T1, NAMPT (Homo sapiens, UniProt P43490).
T1 construct: His tag; host or cells: E. coli
As to the kind of experiment: Biochemical inhibition assay: NAMPT enzymatic reaction, NMN quantified by mass spectrometry. The following applies: read-out: Biochem IC50. A digest of the protocol:
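Inhibition of E. coli-expressed His-tagged human NAMPT, measured as NMN formation by mass spectrometry after a 30 min room-temperature reaction containing 1 μM NAM, 100 μM PRPP and 2.5 mM ATP.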

Setting [3] is: Homo sapiens, A2780, 72 h, SRB assay.

SMILES strings stand for the structures. Read-outs that look alike come from different tables or passages of the source. Bounds are passed on as bounds.

T1 sequence (P43490 whole entry): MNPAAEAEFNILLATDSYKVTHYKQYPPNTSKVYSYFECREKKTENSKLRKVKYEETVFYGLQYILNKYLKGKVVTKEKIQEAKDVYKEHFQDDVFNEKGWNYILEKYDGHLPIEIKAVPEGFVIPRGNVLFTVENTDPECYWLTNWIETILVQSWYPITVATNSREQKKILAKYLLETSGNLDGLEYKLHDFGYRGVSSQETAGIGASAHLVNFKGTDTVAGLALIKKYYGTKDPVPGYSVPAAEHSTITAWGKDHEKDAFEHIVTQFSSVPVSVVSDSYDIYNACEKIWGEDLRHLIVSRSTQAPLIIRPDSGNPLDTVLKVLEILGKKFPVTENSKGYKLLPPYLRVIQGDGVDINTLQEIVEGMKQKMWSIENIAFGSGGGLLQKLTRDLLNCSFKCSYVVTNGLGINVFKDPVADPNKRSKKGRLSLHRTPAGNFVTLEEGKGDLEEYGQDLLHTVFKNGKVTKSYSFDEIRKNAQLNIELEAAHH

By IC50 is commonly meant the concentration at which inhibition is half-maximal. Turning to `O=C(NCc1ccc(S(=O)(=O)c2cccc(Oc3ccc(F)cc3)c2)cc1)c1cc2ccncc2s1`, the IC50 in assay [1] (Homo sapiens, A2780, 72 h, SRB) is 65.6 nM; in assay [2] (NAMPT enzymatic assay), 2.6 nM.

For `Cc1cc(F)ccc1S(=O)(=O)c1ccc(CNC(=O)c2cnc3nccn3c2)cc1`, the IC50 in assay [1] (Homo sapiens, A2780, 72 h, SRB) is 100 to 1000 nM; in assay [2] (NAMPT enzymatic reaction), 13 nM.

Consider `Cc1cncc(S(=O)(=O)c2ccc(CNC(=O)c3cc4ccncc4o3)cc2)n1` [N-{[4-(6-methylpyrazine-2-sulfonyl)phenyl]methyl}furo[2,3-c]pyridine-2-carboxamide], for which the IC50 in assay [1] (Homo sapiens, A2780, 72 h, SRB) came to 9.7 nM; in assay [2] (NAMPT enzymatic assay) it was 20.9 nM.

For `Cc1ccc(S(=O)(=O)c2ccc(CNC(=O)c3cc4ccncc4o3)cc2)c(C)c1`, the IC50 in assay [1] (Homo sapiens, A2780, 72 h, SRB) amounted to 24 nM; in assay [2] (NAMPT enzymatic reaction) it was 21.8 nM.

For `O=C(NCc1ccc(S(=O)(=O)c2ccccc2F)cc1)c1cc2ccncc2o1` [N-({4-[(2-fluorobenzene)sulfonyl]phenyl}methyl)furo[2,3-c]pyridine-2-carboxamide], the IC50 is 100 to 1000 nM in assay [1] (Homo sapiens, A2780, 72 h, SRB) and 41.8 nM in assay [2] (NAMPT enzymatic reaction).

In the case of `COCc1cccc(S(=O)(=O)c2ccc(CNC(=O)c3cnc4[nH]ncc4c3)cc2)c1` [N-[(4-{[3-(methoxymethyl)benzene]sulfonyl}phenyl)methyl]-1H-pyrazolo[3,4-b]pyridine-5-carboxamide], the figures for the IC50 in assay [1] (SRB) and in assay [2] (NAMPT enzymatic assay) were 39.4 nM and 38.7 nM, respectively.

With `CNS(=O)(=O)c1ccccc1S(=O)(=O)c1ccc(CNC(=O)c2cc3ccncc3o2)cc1`, the IC50 in assay [1] (Homo sapiens, A2780, 72 h, SRB) was determined as 74 nM; in assay [2] (NAMPT enzymatic assay) it was 51.3 nM.

Consider `O=C(NCc1ccc(S(=O)(=O)N2CCCCC2)cc1)c1ccc2ncsc2c1` [N-{[4-(piperidine-1-sulfonyl)phenyl]methyl}-1,3-benzothiazole-6-carboxamide], for which the IC50 in assay [1] (setting [3]) came out at 10 nM; in assay [2] (NAMPT enzymatic reaction) it was 9 nM.

Take `O=C(NCc1ccc(S(=O)(=O)c2ccc3ncccc3c2)cc1)c1cc2ccncc2o1` [N-{[4-(quinoline-6-sulfonyl)phenyl]methyl}furo[2,3-c]pyridine-2-carboxamide]: the half-inhibitory concentration (IC50) was determined as 5 nM in assay [1] (Homo sapiens, A2780, 72 h, SRB) and 7.3 nM in assay [2] (NAMPT enzymatic assay).

On to `Cc1ccc(S(=O)(=O)c2ccc(CNC(=O)c3cc4ccncc4s3)cc2)c(F)c1` [N-({4-[(2-fluoro-4-methylbenzene)sulfonyl]phenyl}methyl)thieno[2,3-c]pyridine-2-carboxamide], for which the results for the IC50 in assay [1] (setting [3]) and in assay [2] (NAMPT enzymatic reaction) were 20.7 nM and 8 nM, respectively.

`CCCCOc1cc(F)ccc1S(=O)(=O)c1ccc(CNC(=O)c2cc3ccncc3o2)cc1`: the IC50 was 66.5 nM in assay [1] (Homo sapiens, A2780, 72 h, SRB) and 33.5 nM in assay [2] (NAMPT enzymatic reaction).

Consider `O=C(NCc1ccc(S(=O)(=O)c2cccc(OCCN3CCOCC3)c2)cc1)c1ccc2nccn2c1`, for which the IC50 in assay [1] (Homo sapiens, A2780, 72 h, SRB) came out at 3.4 nM; in assay [2] (NAMPT enzymatic assay), 6.8 nM.

On to `Cc1ccc(Cl)c(S(=O)(=O)c2ccc(CNC(=O)c3cnc4nccn4c3)cc2)c1`, for which the IC50 in assay [1] (Homo sapiens, A2780, 72 h, SRB) worked out at 22.5 nM; in assay [2] (NAMPT enzymatic reaction), 5.7 nM.

Consider `O=C(NCc1ccc(S(=O)(=O)c2cccc(N3CCOCC3)c2)cc1)c1cc2cc(O)ccc2[nH]1`, for which the IC50 in assay [1] (Homo sapiens, A2780, 72 h, SRB) was 1000 to 10000 nM; in assay [2] (NAMPT enzymatic reaction), 100 to 1000 nM.

`O=C(NCc1ccc(S(=O)(=O)c2c(Cl)cccc2Cl)cc1)c1cc2cnccc2[nH]1`: the IC50 was determined as 13.5 nM in assay [1] (Homo sapiens, A2780, 72 h, SRB) and 44.7 nM in assay [2] (NAMPT enzymatic reaction).

As to `Cc1cc(Cl)cnc1S(=O)(=O)c1ccc(CNC(=O)c2cc3ccncc3s2)cc1` [N-{[4-(5-chloro-3-methylpyridine-2-sulfonyl)phenyl]methyl}thieno[2,3-c]pyridine-2-carboxamide], the IC50 in assay [1] (Homo sapiens, A2780, 72 h, SRB) came out at 7.2 nM; in assay [2] (NAMPT enzymatic assay), 3.9 nM.

As for `O=C(NCc1ccc(S(=O)(=O)c2ccc(N3CCOCC3)cc2)cc1)c1cnc2nccn2c1`, the half-maximal inhibitory concentration (IC50) in assay [1] (Homo sapiens, A2780, 72 h, SRB) was 4 nM; in assay [2] (NAMPT enzymatic assay) it was 1.7 nM.

Regarding `Cc1ccncc1S(=O)(=O)c1ccc(CNC(=O)c2cc3ccncc3o2)cc1` [N-{[4-(4-methylpyridine-3-sulfonyl)phenyl]methyl}furo[2,3-c]pyridine-2-carboxamide], the IC50 in assay [1] (Homo sapiens, A2780, 72 h, SRB) is 62 nM; in assay [2] (NAMPT enzymatic assay), 25.2 nM.

Consider `O=C(NCc1ccc(S(=O)(=O)c2ccc(Cl)c(C(F)(F)F)c2)cc1)c1cc2ccncc2s1` [N-[(4-{[4-chloro-3-(trifluoromethyl)benzene]sulfonyl}phenyl)methyl]thieno[2,3-c]pyridine-2-carboxamide], for which the IC50 turned out to be 3.4 nM in assay [1] (setting [3]) and 10 nM in assay [2] (NAMPT enzymatic reaction).

On to `CC(C)(C)c1cccc(S(=O)(=O)c2ccc(CNC(=O)c3cnc4nccn4c3)cc2)c1`, for which the IC50 in assay [1] (Homo sapiens, A2780, 72 h, SRB) is 1.2 nM; in assay [2] (NAMPT enzymatic reaction), under 0.65 nM.

As for `COCc1cccc(S(=O)(=O)c2ccc(CNC(=O)c3cc4cnccc4[nH]3)cc2)c1` [N-[(4-{[3-(methoxymethyl)benzene]sulfonyl}phenyl)methyl]-1H-pyrrolo[3,2-c]pyridine-2-carboxamide], the IC50 in assay [1] (Homo sapiens, A2780, 72 h, SRB) turned out to be 12.8 nM; in assay [2] (NAMPT enzymatic assay) it was 20.2 nM.

Take `O=C(NCc1ccc(S(=O)(=O)c2c(Cl)cccc2Cl)cc1)c1ccc2nccn2c1`: the IC50 is 18.8 nM in assay [1] (Homo sapiens, A2780, 72 h, SRB) and 1.2 nM in assay [2] (NAMPT enzymatic reaction).

Take `CCCCOc1ccc(S(=O)(=O)c2ccc(CNC(=O)c3ccc4nccn4c3)cc2)cc1`: the IC50 in assay [1] (Homo sapiens, A2780, 72 h, SRB) stood at 2.8 nM; in assay [2] (NAMPT enzymatic reaction), 3.8 nM.

As for `Cc1ccc(S(=O)(=O)c2ccc(CNC(=O)c3cnc4[nH]ncc4c3)cc2)s1` [N-{[4-(5-methylthiophene-2-sulfonyl)phenyl]methyl}-1H-pyrazolo[3,4-b]pyridine-5-carboxamide], the IC50 in assay [1] (Homo sapiens, A2780, 72 h, SRB) amounted to 34.7 nM; in assay [2] (NAMPT enzymatic assay), 22.3 nM.

In the case of `CCCCOc1ccc(S(=O)(=O)c2ccc(CNC(=O)c3cnc4[nH]ncc4c3)cc2)cc1Cl`, the IC50 in assay [1] (Homo sapiens, A2780, 72 h, SRB) was 11.1 nM; in assay [2] (NAMPT enzymatic reaction), 4.5 nM.

Take `Cc1cccc(S(=O)(=O)c2ccc(CNC(=O)c3cc4ccncc4s3)cc2)c1` [N-({4-[(3-methylbenzene)sulfonyl]phenyl}methyl)thieno[2,3-c]pyridine-2-carboxamide]: the IC50 in assay [1] (setting [3]) was 2.3 nM; in assay [2] (NAMPT enzymatic reaction), 4 nM.

Regarding `O=C(NCc1ccc(S(=O)(=O)c2cc(OC(F)(F)F)ccc2Cl)cc1)c1cnc2nccn2c1`, the IC50 in assay [1] (Homo sapiens, A2780, 72 h, SRB) was 12.5 nM; in assay [2] (NAMPT enzymatic assay), 8 nM.

Consider `N#CC1(c2ccc(S(=O)(=O)c3ccc(CNC(=O)c4cc5ccncc5o4)cc3)cc2)CCCC1`, for which the IC50 in assay [1] (Homo sapiens, A2780, 72 h, SRB) was 6 nM; in assay [2] (NAMPT enzymatic assay) it was 8 nM.

As to `Cc1ccc(S(=O)(=O)c2ccc(CNC(=O)c3cc4ccncc4s3)cc2)cc1F` [N-({4-[(3-fluoro-4-methylbenzene)sulfonyl]phenyl}methyl)thieno[2,3-c]pyridine-2-carboxamide], the IC50 is 2.8 nM in assay [1] (setting [3]) and 3 nM in assay [2] (NAMPT enzymatic reaction).

As for `CCNC(=O)c1ccc(S(=O)(=O)c2ccc(CNC(=O)c3cnc4[nH]ncc4c3)cc2)cc1` [N-[(4-{[4-(ethylcarbamoyl)benzene]sulfonyl}phenyl)methyl]-1H-pyrazolo[3,4-b]pyridine-5-carboxamide], the IC50 in assay [1] (Homo sapiens, A2780, 72 h, SRB) worked out at 96.8 nM; in assay [2] (NAMPT enzymatic assay), 103 nM.

In the case of `CS(=O)(=O)c1cccc(S(=O)(=O)c2ccc(CNC(=O)c3cc4ccncc4s3)cc2)c1`, the IC50 in assay [1] (Homo sapiens, A2780, 72 h, SRB) was 3.5 nM; in assay [2] (NAMPT enzymatic reaction), 1.7 nM.

With `O=C(NCc1ccc(S(=O)(=O)N2CCCCC2)cc1)c1ccc2[nH]ncc2c1` [N-{[4-(piperidine-1-sulfonyl)phenyl]methyl}-1H-indazole-5-carboxamide], the concentration for half-maximal inhibition (IC50) is 16 nM in assay [1] (setting [3]) and 18 nM in assay [2] (NAMPT enzymatic reaction).

As for `O=C(NCc1ccc(S(=O)(=O)c2cccc(-c3ncccn3)c2)cc1)c1ccc2nccn2c1`, the IC50 is 3.8 nM in assay [1] (Homo sapiens, A2780, 72 h, SRB) and 21.9 nM in assay [2] (NAMPT enzymatic assay).

For the molecule `O=C(NCc1ccc(S(=O)(=O)c2ccc(F)c(C(F)(F)F)c2)cc1)c1cc2ccncc2o1`, the IC50 in assay [1] (Homo sapiens, A2780, 72 h, SRB) turned out to be 7.2 nM; in assay [2] (NAMPT enzymatic assay), 8.2 nM.

As for `Cc1cc(-n2cccn2)ccc1S(=O)(=O)c1ccc(CNC(=O)c2cc3ccncc3s2)cc1`, the IC50 was 3.1 nM in assay [1] (Homo sapiens, A2780, 72 h, SRB) and 1.5 nM in assay [2] (NAMPT enzymatic assay).

For the molecule `CCCn1cc(S(=O)(=O)c2ccc(CNC(=O)c3ccc4nccn4c3)cc2)cn1` [N-{[4-(1-propyl-1H-pyrazole-4-sulfonyl)phenyl]methyl}imidazo[1,2-a]pyridine-6-carboxamide], the IC50 in assay [1] (Homo sapiens, A2780, 72 h, SRB) turned out to be 5.2 nM; in assay [2] (NAMPT enzymatic assay) it was 4.9 nM.

`CS(=O)(=O)c1cccc(S(=O)(=O)c2ccc(CNC(=O)c3cc4ccncc4o3)cc2)c1`: the IC50 in assay [1] (Homo sapiens, A2780, 72 h, SRB) was found to be 6.8 nM; in assay [2] (NAMPT enzymatic reaction), 6 nM.

As to `O=C(NCc1ccc(S(=O)(=O)c2cncc(Cl)c2)cc1)c1cc2cnccc2[nH]1` [N-{[4-(5-chloropyridine-3-sulfonyl)phenyl]methyl}-1H-pyrrolo[3,2-c]pyridine-2-carboxamide], the IC50 in assay [1] (Homo sapiens, A2780, 72 h, SRB) was 3.6 nM; in assay [2] (NAMPT enzymatic assay) it was 20 nM.

Take `O=C(NCc1ccc(S(=O)(=O)c2ccc(N3CCOCC3)nc2)cc1)c1cnc2nccn2c1` [N-({4-[6-(morpholin-4-yl)pyridine-3-sulfonyl]phenyl}methyl)imidazo[1,2-a]pyrimidine-6-carboxamide]: the IC50 was determined as 3.3 nM in assay [1] (Homo sapiens, A2780, 72 h, SRB) and 1.1 nM in assay [2] (NAMPT enzymatic assay).

Consider `O=C(NCc1ccc(S(=O)(=O)CCc2ccccc2)cc1)C1=Nc2ccncc2C1` [N-({4-[(2-phenylethane)sulfonyl]phenyl}methyl)-1H-pyrrolo[3,2-c]pyridine-2-carboxamide], for which the values for the IC50 in assay [1] (setting [3]) and in assay [2] (NAMPT enzymatic reaction) were 22 nM and 11 nM, respectively.

For the molecule `COc1cc(C)cc(OC)c1S(=O)(=O)c1ccc(CNC(=O)c2cc3ccncc3o2)cc1` [N-({4-[(2,6-dimethoxy-4-methylbenzene)sulfonyl]phenyl}methyl)furo[2,3-c]pyridine-2-carboxamide], the IC50 in assay [1] (Homo sapiens, A2780, 72 h, SRB) was determined as 23 nM; in assay [2] (NAMPT enzymatic reaction) it was 5 nM.

Take `O=C(NCc1ccc(S(=O)(=O)c2ccc(Cl)cc2)cc1)c1cnc2[nH]ncc2c1` [N-({4-[(4-chlorobenzene)sulfonyl]phenyl}methyl)-1H-pyrazolo[3,4-b]pyridine-5-carboxamide]: the IC50 in assay [1] (Homo sapiens, A2780, 72 h, SRB) worked out at 22 nM; in assay [2] (NAMPT enzymatic reaction) it was 28.8 nM.

Turning to `CCCCc1ccc(S(=O)(=O)c2ccc(CNC(=O)c3ccc4nccn4c3)cc2)cc1`, the IC50 in assay [1] (Homo sapiens, A2780, 72 h, SRB) was determined as 7.6 nM; in assay [2] (NAMPT enzymatic reaction), 5.7 nM.
